Results on two compounds are retold here after patent US20240207285A1 (Melt Pharmaceuticals, Inc., priority 2022, published 2024).

Data set [1] in a line: Phase 1 relative bioavailability study: plasma pharmacokinetics of midazolam, 1-hydroxymidazolam, ketamine and norketamine. The procedure:
PK analysis was performed using noncompartmental methods in Phoenix WinNonlin® (Version 8.1, Certara, L.P.) in conjunction with the internet-accessible implementation of the Pharsight® Knowledgebase Server™ (PKSO; Version 4.0.4, Certara, L.P). PKSO provides protected and structured storage, audit trails, and version control for study data, analyses, and related files, supporting 21 CFR Part 11 compliance. The analysis was performed in accordance with the Statistical Analysis Plan (Version 1.0, 5 Jan. 2021).
During the PK analysis, concentrations below the limit of quantitation (BLQ) up to the time of the first quantifiable concentration were treated as zero. Embedded (values between 2 quantifiable concentrations) and terminal BLQ concentrations were treated as “missing”. Calculation of the PK characteristics were based on actual elapsed times [h] (relative to time of dose).
All PK analyses were performed on the data from the PK Analysis Population. […] The ANOVA model included factors for sequence, subject within sequence, treatment, and period.

The subject of data set [2] is healthy adult subjects. The experiment in a line: Phase 1 adverse events. Format: in vivo, human. The text has this:
(§1) The Investigator evaluated safety using physical and oral examinations, O2 saturation (SpO2), vital sign measurements, clinical laboratory evaluations, electrocardiograms (ECGs), reported or observed adverse events (AEs), and assessments of neurocognitive function. Subjects were monitored for any AEs from the first dose through the end of the study.
Adverse events were coded using the Medical Dictionary for Regulatory Activities (MedDRA, version 22.0, or later) terms and summarized by system organ class (SOC) and preferred term (PT) within SOC. The number and percentage of subjects reporting TEAEs were summarized by reported SOC and PT for each treatment and the population overall. TEAEs were also summarized by maximum severity and nearest relationship to study drug, by SOC and PT for each treatment.
A by-subject AE (including treatment-emergent) data listing, including but not limited to verbatim term, SOC, PT, severity, and relationship to study treatment, was provided. Deaths, SAEs, and other significant AEs, including those leading to early termination of study treatments were listed.

The subject of data set [3] is healthy adult subjects. Put plainly: Phase 1 vital signs and pulse oximetry. Format: in vivo, human. To be noted: for Mean changes from baseline in systolic and diastolic blood pressures: MELT-100 3/25 mg and 6/25 mg (so in the source), midazolam 3.5 mg IV, ketamine 18 mg IV, each timepoint.
Text: as §1
(§2) Vital signs, clinical laboratory values (hematology, serum chemistry, and urinalysis), and 12-lead ECG parameters were summarized by treatment including any abnormal values flagged.

Data set [4] relates to healthy adult subjects. Put plainly: Phase 1 sedation level by Ramsay sedation scale (RSS). The data set is classed as in vivo, human. How it is done:
(§3) Pharmacodynamic parameters included sedation, defined as time to onset of sedation and sedation level, assessed using the Ramsay sedation scale (RSS), and cardiodynamics assessed by QTcF, heart rate, and PR and QRS intervals, and T-wave morphology and U-wave presence, extracted from ECGs collected via Holter monitor from predose through 24 hours postdose.
All pharmacodynamic analyses were performed on data from the Safety Population. The RSS scores were summarized by treatment and by timepoint. Time to onset of sedation was summarized by treatment and presented graphically.

Data set [5] relates to healthy adult subjects. Put plainly: Phase 1 electrocardiograms / cardiodynamics. The data set is classed as in vivo, human. To be noted: one subject, 24 hours after midazolam 3.5 mg IV; not considered clinically significant. How it is done: as §3
An analysis of categorical outliers was performed for changes in heart rate; PR, QRS, and QTcF intervals; T-wave morphology; and U-wave presence.
as §2

Setting [6] is: Treatment D: ketamine 18 mg IV, mean.
The mark [7] stands for this setting: 5 minutes after ketamine 18 mg IV.
Where [8] appears, read: Treatment C: midazolam 3.5 mg IV, mean.

For orientation: half-life means how long it takes for the measured level to halve. Lower therefore signals fast loss. As usually defined, the AUC(0-t) is exposure summed from dosing to a finite time, without extrapolation to infinity. A high value points to high exposure. A word on the AUC(0-inf): it is the area under the concentration-time curve extrapolated to infinity. What is called Cmax is the highest concentration seen after dosing. By Tmax is commonly meant the time from dosing to the highest level. One may read the Vd as a proportionality between amount in the body and measured concentration, not a real space. One may read the clearance as a measure of how efficiently the substance is removed, as volume per time. A high value points to efficient removal.

With `CNC1(c2ccccc2Cl)CCCCC1=O` (centres unmarked) [Ketamine, 2-(2-chlorophenyl)-2-(methylamino)cyclohexanone], the “AUCExtrap, ketamine” value in data set [1] (setting [6]) is 9.64%. In addition, in data set [1] (setting [6]), the “CL, ketamine” value is 59.9 L/h. In data set [1] (setting [6]), the “Clast, ketamine” value turned out to be 1.99 ng/mL. Moreover, the half-life in data set [1] (human, plasma, iv, 18 mg) is 618 min. Also, the AUC(0-t) turned out to be 283 ng·h/mL in data set [1] (human, plasma, iv, 18 mg, AUC0-t, ketamine, Treatment D: ketamine 18 mg IV, mean) and 277 ng·h/mL in data set [1] (human, plasma, iv, 18 mg, GeoMean AUC0-t, ketamine, Ref (D) ketamine 18 mg IV, least squares geometric mean). Further, the AUC(0-inf) was 316 ng·h/mL in data set [1] (human, plasma, iv, 18 mg, AUCinf, ketamine, Treatment D: ketamine 18 mg IV, mean) and 307 ng·h/mL in data set [1] (human, plasma, iv, 18 mg, GeoMean AUCinf, ketamine, Ref (D) ketamine 18 mg IV, least squares geometric mean). Besides, the highest concentration (Cmax) in data set [1] (human, plasma, iv, 18 mg, Cmax, ketamine, Treatment D: ketamine 18 mg IV, mean) turned out to be 250 ng/mL; in data set [1] (human, plasma, iv, 18 mg, GeoMean Cmax, ketamine, Ref (D) ketamine 18 mg IV, least squares geometric mean), 208 ng/mL. Besides, the Tmax in data set [1] (human, plasma, iv, 18 mg, Tmax, ketamine, Treatment D: ketamine 18 mg IV, median (range)) was 10 min. Besides, in data set [2] (ketamine 18 mg IV), the “Treatment-related AEs of hypertension” value came to 3 AEs. The “Mean changes from baseline in systolic and diastolic blood pressures” value in data set [3] was “highest at the 10-minute timepoint”. Also, in data set [4] (setting [7]), the “Subjects with RSS score of 1” value is recorded as 1 (4.0%) subjects (%). Besides, the “Subjects with RSS score of 5” value in data set [4] (setting [7]) was 1 (4.0%) subjects (%). Also, in data set [4] (ketamine 18 mg IV), the “Highest proportion of subjects with RSS scores >2 postdose” value was about 8%.

For `Cc1ncc2n1-c1ccc(Cl)cc1C(c1ccccc1F)=NC2` [Midazolam, 8-chloro-6-(2-fluorophenyl)-1-methyl-4H-imidazo[1,5-a][1,4]benzodiazepine], the “AUCExtrap, midazolam” value in data set [1] (setting [8]) was 5.58%. Also, the “Clast, midazolam” value in data set [1] (setting [8]) is 0.963 ng/mL. The compound further showed a Vd in data set [1] (human, plasma, iv, 3.5 mg) of 202 L. This compound gave a clearance in data set [1] (human, plasma, iv, 3.5 mg) of 348 mL/min. In addition, the half-life in data set [1] (human, plasma, iv, 3.5 mg) was 420 min. Also, the exposure AUC(0-t) is 168 ng·h/mL in data set [1] (human, plasma, iv, 3.5 mg, AUC0-t, midazolam, Treatment C: midazolam 3.5 mg IV, mean) and 164 ng·h/mL in data set [1] (human, plasma, iv, 3.5 mg, GeoMean AUC0-t, midazolam, Ref (C) midazolam 3.5 mg IV, least squares geometric mean). Moreover, the AUC(0-inf) in data set [1] (human, plasma, iv, 3.5 mg, AUCinf, midazolam, Treatment C: midazolam 3.5 mg IV, mean) was found to be 179 ng·h/mL; in data set [1] (human, plasma, iv, 3.5 mg, GeoMean AUCinf, midazolam, Ref (C) midazolam 3.5 mg IV, least squares geometric mean), 174 ng·h/mL. The maximum concentration (Cmax) in data set [1] (human, plasma, iv, 3.5 mg, Cmax, midazolam, Treatment C: midazolam 3.5 mg IV, mean) was 146 ng/mL; in data set [1] (human, plasma, iv, 3.5 mg, GeoMean Cmax, midazolam, Ref (C) midazolam 3.5 mg IV, least squares geometric mean), 127 ng/mL. In addition, the Tmax in data set [1] (human, plasma, iv, 3.5 mg, Median Tmax, midazolam, Treatment C: midazolam 3.5 mg IV) is 11 min; in data set [1] (human, plasma, iv, 3.5 mg, Tmax, midazolam, Treatment C: midazolam 3.5 mg IV, median (range)) it was 11 min. Also, the “Number of treatment-related AEs” value in data set [2] (midazolam 3.5 mg IV) is given as 2 events. Moreover, in data set [5], the PR duration result is on record as “abnormal”. Besides, the “Mean changes from baseline in systolic and diastolic blood pressures” value in data set [3] is “minimal and similar”. In data set [3] (midazolam 3.5 mg IV at 10 minutes postdose, MELT-100 6/50 mg at 30 minutes postdose, minimal at 2 hours), the “Mean change from baseline in pulse oximetry” value is on record as “small mean decrease from baseline”. In addition, the “Subjects with RSS scores of 3” value in data set [4] (5 minutes after midazolam 3.5 mg IV) is reported as 2 (8.3%) subjects (%). Also, the “Highest proportion of subjects with RSS scores >2 postdose” value in data set [4] (midazolam 3.5 mg IV) was about 54%.
